# Measured values reported in patent publication US8263777B2, “Aminopyrazole triazolothiadiazole inhibitor of c-Met protein kinase” (Vertex Pharmaceuticals Incorporated, priority 2010, dated 2012).
# Several values for one entry are separate records, joined by “and”; a condition that tells them apart may be missing. Identical values can stand only once.
# Legend:
# [1] = target: T1, c-Met (Homo sapiens, UniProt P08581); assay: c-Met kinase inhibition assay (radiometric, 33P-ATP, polyE4Y); assay type: biochemical; settings: 0.5 nM c-Met, 35 μM ATP, competitive tight-binding fit
# Description: Compound 1 was screened for its ability to inhibit c-Met kinase using a standard radiometric assay. Briefly, in this kinase assay the transfer of the terminal ^33P-phosphate in ^33P-ATP to substrate polyE4Y is interrogated. The assay was carried out in 96-well plates to a final volume of 100 μL per well containing 0.5 nM c-Met, 100 mM HEPES (pH 7.5), 10 mM MgCl2, 25 mM NaCl, 0.01% BSA, 1 mM DTT, 0.5 mg/mL polyE4Y, and 35 μM ATP. Accordingly, Compound 1 was dissolved in DMSO to make a 10 mM initial stock solution. Serial dilutions in DMSO were then made to obtain the final solutions for the assay. A 1.5 μL aliquot of DMSO or inhibitor in DMSO was added to each well, followed by the addition of ^33P-ATP, and finally the addition of c-Met and polyE4Y (obtained from Sigma). After 20 min, the reaction was quenched with 50 μL of 30% trichloroacetic acid (TCA) containing 4 mM ATP. The reaction mixture was transferred to the 0.66 mm GF filter plates (Corning) and washed three times with 5% TCA. Following the addition of 50 μL of Ultimate Gold™ high efficiency scintillant (Packard Bioscience), the samples were counted in a Packard TopCount NXT Microplate Scintillation and Luminescence Counter (Packard BioScience). The Ki values were calculated using Microsoft Excel Solver macros to fit the data to the kinetic model for competitive tight-binding inhibition.
# [2] = system: SNU-5 gastric cancer cells; assay: Inhibition of tumor growth of subcutaneously implanted SNU-5 cells in SCID mice; assay type: in vivo; settings: for SNU-5 tumor weight at study termination, Mean: Day 38, group mean; for SNU-5 tumor weight at study termination, Mean / SNU-5 tumor weight at study termination, individual animal: in mg (unit assumed); for SNU-5 tumor weight at study termination, individual animal: Day 38, one value per animal ID, listed as Compound 3; for percent tumor weight reduction vs vehicle control: P<0.002
# Description: SNU-5 cells (CRL-5973, American Type Culture Collection, Manassas, Va.) were cultured in ISCOVE's Modified Dulbecco's Medium (IMDM) (Invitrogen, Carlsbad, Calif.) supplemented with 10% fetal bovine serum (FBS) (Hyclone, Logan, Utah), 100 units/mL of penicillin, […] of streptomycin (Invitrogen, Carlsbad, Calif.), and 2 mM L-glutamine. Cells were cultured for fewer than 4 passages prior to implantation. Female SCID mice (Fox Chase SCID, CB-17, mice weighing 17 to 19 g obtained from Charles River Laboratories, Wilmington, Mass.) were injected subcutaneously (s.c.) with 5×10^6 SNU-5 cells into the right dorsal axillary region on Day 0. Treatments were initiated on Day 25 when the average tumor volume reached approximately 358 mm^3.
# Compound 1, formulated in a vehicle containing 30% (w/v) Propylene Glycol and 10% Solutol (Sigma-Aldrich, St Louis, Mo.) as a suspended homogenous form, was administered orally (p.o.) once daily (QD) at total daily doses of 3, 10, and 30 mg/kg/day for 14 days. Tumor volumes (calculated using the ellipsoid formula, (length×width^2)/2, where length and width represented the largest and smallest dimensions of the tumor, respectively) were recorded for two weeks after the initiation of treatment. The study was terminated 38 days after tumor implantation.
# [3] = system: A549 cells (A549HGF-lm1115); assay: Inhibition of tumor metastasis to the lungs, subcutaneous A549HGF tumors in SCID mice; assay type: in vivo; settings: for Luminescence of homogenized lung tissue, Mean / Luminescence of homogenized lung tissue, individual animal: study termination; for Luminescence of homogenized lung tissue, Mean: group mean; for Luminescence of homogenized lung tissue, individual animal: one value per animal ID
# Description: Compound 1 was investigated for its ability to inhibit the metastasis of subcutaneously implanted tumors to the lungs of severe combined immunodeficient (SCID) mice. Accordingly, A549 cells (A549HGF-lm1115, transfected with hepatocyte growth factor, luciferase, and green fluorescent protein) were cultured in RPMI1640 medium (Invitrogen, Carlsbad, Calif.) supplemented with 10% fetal bovine serum (FBS) (Hyclone, Logan, Utah), 100 units/mL of penicillin, […] of streptomycin (Invitrogen, Carlsbad, Calif.), and 2 mM L-glutamine for fewer than 4 passages prior to implantation. 3-(Difluoro(quinolin-6-yl)methyl)-N-(1-methyl-1H-pyrazol-4-yl)-[1,2,4]triazolo[3,4-b][1,3,4]thiadiazol-6-amine (Compound 1) was formulated in a vehicle containing 0.5% (w/v) methylcellulose (Sigma-Aldrich, St Louis, Mo.) and 0.1% (v/v) Tween 80™ as a dissolved homogenous form, which was prepared fresh each day and administered to mice via oral gavage at a dosing volume of 10 mL/kg.
# Female SCID mice were injected subcutaneously (s.c.) with 5×10^6 A549HGF cells into the right dorsal axillary region on Day 0. Treatments were initiated on the same day by oral administration (p.o.) of Compound 1 once daily (QD) at total daily doses of 30 and 60 mg/kg/day for 22 days. Ectopic tumor measurements were recorded twice a week for 3 weeks after the initiation of treatment.
# In order to evaluate the anti-metastatic potential of Compound 1, at the termination of the study all animal lung tissues were harvested and lysed by homogenization for ex vivo quantification via luciferase luminescence.
# [4] = target: T1, c-Met; assay: Inhibition of c-Met activity in Snu5 gastric carcinoma cells (Snu5-AP1-Luc-Pest luciferase); assay type: cell-based; set-up: is a human gastric carcinoma known to overexpress c-Met, which is constitutively active; host or cells: Snu5 human gastric carcinoma cells transduced with a 6xAP1-luciferase-PEST reporter (Snu5-AP1-Luc-Pest); settings: 6 hours, luciferase luminescence
# Description: Compound 1 was also screened for its ability to inhibit the Luciferase-induced signal in an engineered Snu5 cell line. Snu5 [obtained from American Type Culture Collection (Catalog number CRL-5973)] is a human gastric carcinoma known to overexpress c-Met, which is constitutively active. The cell line was transduced with the retrovirus, pCLPCX, which contains a genetic construct consisting of 6×AP1 promoter response elements and a luciferase gene having a C-terminal PEST sequence (proteolytic signal from mouse ornithine decarboxylase, which reduces the half-life of the luciferase). The constitutively active c-Met activates cellular pathways (principally MAP kinase), resulting in AP-1-induced transcription of luciferase-PEST and translation into the final product, the activity of which is quantifiable as a chemiluminescent readout upon the addition of luciferin (Steady-Glo from Promega.). Residual luminescence is strongly correlated to the inhibition of c-Met. A stable cell line was obtained by selecting the new cell line (Snu5-AP1-Luc-Pest) with puromycin. […] The Snu5-AP1-Luc-Pest cells were counted and diluted to 200,000-cells/mL solution. […] The plate was read on a 1450 Microbeta Liquid Scintillation and Luminescence Counter (Perkin-Elmer).
# T1 sequence (P08581 25-1390): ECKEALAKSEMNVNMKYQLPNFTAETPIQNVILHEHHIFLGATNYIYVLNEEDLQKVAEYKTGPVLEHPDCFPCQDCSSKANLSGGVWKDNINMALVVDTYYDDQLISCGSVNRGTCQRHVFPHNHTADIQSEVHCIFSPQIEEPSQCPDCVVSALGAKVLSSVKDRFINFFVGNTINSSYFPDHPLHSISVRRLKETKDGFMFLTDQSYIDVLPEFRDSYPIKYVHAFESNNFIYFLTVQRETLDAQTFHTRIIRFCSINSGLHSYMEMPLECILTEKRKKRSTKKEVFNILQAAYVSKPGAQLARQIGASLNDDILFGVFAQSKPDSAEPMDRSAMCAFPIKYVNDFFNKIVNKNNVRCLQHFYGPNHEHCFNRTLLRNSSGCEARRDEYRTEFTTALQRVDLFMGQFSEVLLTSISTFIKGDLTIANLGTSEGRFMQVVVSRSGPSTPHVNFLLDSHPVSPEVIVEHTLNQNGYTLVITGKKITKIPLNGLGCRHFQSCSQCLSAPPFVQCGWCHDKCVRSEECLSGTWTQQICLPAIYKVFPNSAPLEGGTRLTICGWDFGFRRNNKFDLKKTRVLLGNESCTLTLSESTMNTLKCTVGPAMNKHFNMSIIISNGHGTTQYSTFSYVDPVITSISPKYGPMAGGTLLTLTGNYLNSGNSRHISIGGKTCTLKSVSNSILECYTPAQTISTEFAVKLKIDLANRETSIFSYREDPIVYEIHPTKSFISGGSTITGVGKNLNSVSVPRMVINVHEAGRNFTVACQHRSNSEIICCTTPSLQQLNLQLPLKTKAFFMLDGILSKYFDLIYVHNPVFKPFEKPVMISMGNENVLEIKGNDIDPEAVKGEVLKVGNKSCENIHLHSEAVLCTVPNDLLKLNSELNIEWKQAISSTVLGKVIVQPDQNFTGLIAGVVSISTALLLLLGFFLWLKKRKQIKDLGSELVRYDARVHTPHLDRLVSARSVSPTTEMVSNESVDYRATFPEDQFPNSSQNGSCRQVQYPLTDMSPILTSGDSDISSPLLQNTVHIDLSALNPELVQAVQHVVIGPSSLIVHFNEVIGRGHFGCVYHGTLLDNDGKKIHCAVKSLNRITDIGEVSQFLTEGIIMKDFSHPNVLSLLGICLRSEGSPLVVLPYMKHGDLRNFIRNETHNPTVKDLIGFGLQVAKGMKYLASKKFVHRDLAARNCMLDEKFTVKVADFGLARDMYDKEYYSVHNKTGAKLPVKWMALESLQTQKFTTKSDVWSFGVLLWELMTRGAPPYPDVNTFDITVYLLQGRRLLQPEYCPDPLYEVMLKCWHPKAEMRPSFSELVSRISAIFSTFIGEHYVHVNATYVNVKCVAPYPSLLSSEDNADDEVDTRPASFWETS
compound,measurement,setting,value
"Cn1cc(Nc2nn3c(C(F)(F)c4ccc5ncccc5c4)nnc3s2)cn1 [Compound 1, 3-(difluoro(quinolin-6-yl)methyl)-N-(1-methyl-1H-pyrazol-4-yl)-[1,2,4]triazolo[3,4-b][1,3,4]thiadiazol-6-amine]",Ki,[1],< 20 nM
same,SNU-5 tumor volume,"[2]; 3 mg/kg/day p.o. QD, Day 25 (treatment start), mean ± standard error",356.1 ± 24.5 mm^3
same,SNU-5 tumor volume,"[2]; 3 mg/kg/day p.o. QD, Day 28, mean ± standard error",432.6 ± 31.2 mm^3
same,SNU-5 tumor volume,"[2]; 3 mg/kg/day p.o. QD, Day 31, mean ± standard error",511.9 ± 36.3 mm^3
same,SNU-5 tumor volume,"[2]; 3 mg/kg/day p.o. QD, Day 35, mean ± standard error",587.8 ± 39.5 mm^3
same,SNU-5 tumor volume,"[2]; 3 mg/kg/day p.o. QD, Day 38, mean ± standard error",670.4 ± 46.2 mm^3
same,"SNU-5 tumor weight at study termination, Mean",[2]; 3 mg/kg/day,619.9
same,"SNU-5 tumor weight at study termination, individual animal",[2]; 3 mg/kg/day,619 and 505 and 525 and 485 and 605 and 655 and 851 and 770 and 405 and 790 and 938 and 508 and 368 and 679 and 596
same,percent tumor weight reduction vs vehicle control,[2]; 3 mg/kg/day,34.5%
same,SNU-5 tumor volume,"[2]; 10 mg/kg/day p.o. QD, Day 25 (treatment start), mean ± standard error",358.0 ± 17.1 mm^3
same,SNU-5 tumor volume,"[2]; 10 mg/kg/day p.o. QD, Day 28, mean ± standard error",354.2 ± 21.7 mm^3
same,SNU-5 tumor volume,"[2]; 10 mg/kg/day p.o. QD, Day 31, mean ± standard error",381.8 ± 25.6 mm^3
same,SNU-5 tumor volume,"[2]; 10 mg/kg/day p.o. QD, Day 35, mean ± standard error",406.6 ± 23.4 mm^3
same,SNU-5 tumor volume,"[2]; 10 mg/kg/day p.o. QD, Day 38, mean ± standard error",453.9 ± 27.3 mm^3
same,"SNU-5 tumor weight at study termination, Mean",[2]; 10 mg/kg/day,385.7
same,"SNU-5 tumor weight at study termination, individual animal",[2]; 10 mg/kg/day,319 and 476 and 358 and 469 and 279 and 660 and 418 and 400 and 387 and 410 and 349 and 275 and 305 and 371 and 309
same,percent tumor weight reduction vs vehicle control,[2]; 10 mg/kg/day,59.3%
same,SNU-5 tumor volume,"[2]; 30 mg/kg/day p.o. QD, Day 25 (treatment start), mean ± standard error",359.5 ± 35.1 mm^3
same,SNU-5 tumor volume,"[2]; 30 mg/kg/day p.o. QD, Day 28, mean ± standard error",281.3 ± 28.7 mm^3
same,SNU-5 tumor volume,"[2]; 30 mg/kg/day p.o. QD, Day 31, mean ± standard error",256.5 ± 23.6 mm^3
same,SNU-5 tumor volume,"[2]; 30 mg/kg/day p.o. QD, Day 35, mean ± standard error",255.7 ± 21.1 mm^3
same,SNU-5 tumor volume,"[2]; 30 mg/kg/day p.o. QD, Day 38, mean ± standard error",273.4 ± 24.2 mm^3
same,"SNU-5 tumor weight at study termination, Mean",[2]; 30 mg/kg/day,251.2
same,"SNU-5 tumor weight at study termination, individual animal",[2]; 30 mg/kg/day,180 and 173 and 260 and 420 and 250 and 156 and 350 and 327 and 150 and 246
same,tumor regression by tumor volume analysis,"[2]; 30 mg/kg/day, P<0.001",−23.9%
same,percent tumor weight reduction vs vehicle control,[2]; 30 mg/kg/day,73.5%
same,anti-tumor activity,"[2]; all three dose levels tested (3, 10, 30 mg/kg/day)",significant and dose-dependent anti-tumor activity
same,"Luminescence of homogenized lung tissue, Mean",[3]; 30 mg/kg/day,12740.8 counts
same,"Luminescence of homogenized lung tissue, individual animal",[3]; 30 mg/kg/day,3890 counts and 5270 counts and 2270 counts and 2620 counts and 17200 counts and 21300 counts and 6430 counts and 4340 counts and 65400 counts and 2230 counts and 16300 counts and 5640 counts
same,formation of lung metastases,"[3]; 60 mg/kg/day compared to vehicle controls, p<0.02",significantly inhibits
same,"Luminescence of homogenized lung tissue, Mean","[3]; 60 mg/kg/day, p<0.02 vs vehicle",6672.3±1986.1 counts and 6672.3 counts
same,"Luminescence of homogenized lung tissue, individual animal",[3]; 60 mg/kg/day,2170 counts and 1480 counts and 2540 counts and 19300 counts and 21100 counts and 3800 counts and 16500 counts and 1440 counts and 2620 counts and 2920 counts and 5540 counts and 4860 counts and 2470 counts
same,change in primary A549 tumor cell growth at the site of implantation vs vehicle,"[3]; 30 or 60 mg/kg/day p.o. QD, 22 days",no significant change
same,IC50,[4],< 20 nM
